This is an account of results in patent US9487555B2, “Prodrug of an ice inhibitor” (VERTEX PHARMACEUTICALS INCORPORATED, priority 2000, dated 2016).

The data set can be described thus: Oral pharmacokinetic studies in rats (quantitation of ICE inhibitor in rat plasma by HPLC/MS/MS). The data set is classed as in vivo, Male Sprague-Dawley rats. Conditions: for AUC: male Sprague-Dawley rats, oral 50 mg/kg in 100% propylene glycol, plasma, noncompartmental; for Bioavailability (in words): amount of ICE inhibitor in rat plasma after oral administration, comparison in words. The procedure: Applicants studied a number of prodrug ICE inhibitors, including examples listed in the aforementioned WO 99/47545. Bioavailability was determined by quantitating the amount of ICE inhibitor in rat plasma after oral administration, as described below.
Male Sprague-Dawley rats (Harlan, Indianapolis, Ind., 300-350 g) were anesthetized by an intramuscular injection of ketamine/rompun mixture. A PE-50 cannula was inserted in the right carotid artery for arterial blood sampling. The rats were allowed to recover from surgery overnight (16 hours) prior to being used in the study. Test compounds were administered orally at 50 mg/kg 100% propylene glycol (PG) at a dose volume of 10 mL/kg. Blood samples (˜0.30 mL) were removed at 0.25, 0.50, 1.0, 1.5, 2, 3, 4, 6, and 8 hours post-dose, plasma separated by centrifugation and stored at −80° C. pending analysis. Quantification of the plasma samples was conducted using a gradient HPLC/MS/MS similar to the one detailed below: […]
HPLC/MS/MS Method for the Quantitation of ICE Inhibitors in Rat Plasma
1. 100 μl of plasma are aliquotted into Ependorf centrifuge vials.
2. An equal volume of acetonitrile is added to the plasma to precipitate plasma proteins.
3. Samples are vortexed for 2 minutes, and centrifuged at 14,000 rpms for 3 minutes.
4. 100 μl of the supernatant is loaded into 12 mm HPLC liquid sampler vials.
5. A 20 μl addition of […] standard is added to the 100 μl aliquot to monitor variation in instrumental response.
6. 10 μl of sample is injected for analysis via the mass spectrometer.
HPLC Instrumental Parameters
• HPLC: Hewlett Packard HP1100 Binary Solvent Delivery System. HPLC Gradient Conditions • A=H2O 0.2% Formic Acid • B=Acetonitrile 0.2% Formic Acid Mobile Phase
• HPLC Analytical Column: Keystone Phenyl-1 Hypersil 2.0×100 mm, 5μ 120 Å pore pore size, P/N# 105-36-2. • Injection Volume: 10 μl • Flow Rate: 0.20 mL/min. Mass Spectrometry Instrumental Parameters • Instrument: Micromass Quattro Ultima, Tandem Mass Spectrometer • Ionization Technique: Orthogonal spray (ESI) • Polarity: Positive • Dwell Time: 300 msec • Pause Time: 5 msec • Scan time: 0.9 sec • Scan Mode: MRM (Multiple Reaction Monitoring) • Ions/Transitions: For compound I-A m/z509.1-243.1 • For compound II m/z481.1-215.1 Pharmacokinetic Parameters
Pharmacokinetic analysis of these plasma concentration data was conducted using noncompartmental methods. The area under the curve (AUC(0-t)) was estimated from time zero to the last measured time point using the linear trapezoidal rule. The rate of elimination (ke) was estimated by log-linear regression from the terminal phase of the plasma concentration-time curves. Area under the tail of the curve was estimated as the ratio of the last measured concentration to ke. The area under the curve from time zero to infinity (AUC(0-∞)) was obtained by addition of the area under the tail to AUC(0-t). Elimination half-life was estimated as 0.693/ke. The observed values for the peak plasma concentration (Cmax) were recorded.

Molecule `CCO[C@@H]1OC(=O)C[C@@H]1NC(=O)[C@@H]1CCCN1C(=O)[C@H](C)NC(=O)c1ccc(N)c(Cl)c1` [Compound A, reference compound] returned an AUC of 2.18 μgXh/mL.

For the molecule `CCOC1OC(=O)C[C@@H]1NC(=O)[C@@H]1CCCN1C(=O)[C@@H](NC(=O)c1nccc2ccccc12)C(C)(C)C` (some centres unmarked) [Compound B, reference compound], the AUC came to 1.35 μgXh/mL.

On to `CCO[C@@H]1OC(=O)C[C@@H]1NC(=O)[C@@H]1CCCN1C(=O)[C@@H](NC(=O)c1ccc(N)c(Cl)c1)C(C)(C)C` [Compound I], for which the “Bioavailability (in words)” value is given as “unexpectedly improved bioavailability” and the AUC was 11.7 μgXh/mL.

With `CC(C)(C)C(NC(=O)c1ccc(N)c(Cl)c1)C(=O)N1CCCC1C(=O)NC(C=O)CC(=O)O` (centres unmarked) [II], the “Bioavailability (in words)” value is given as “poor bioavailability”.
